Results reported in the supplement of paper PMC10307832.

Key:
Assay in all cases: relative viability (nuclei count vs DMSO), 5 days (fraction); higher = more cells survive
IPA-3 + Trametinib = compound: C1=CC=C2C(=C1)C=CC(=C2SSC3=C(C=CC4=CC=CC=C43)O)O [IPA-3] + CC(=O)Nc1cccc(-n2c(=O)n(C3CC3)c(=O)c3c(Nc4ccc(I)cc4F)n(C)c(=O)c(C)c32)c1 [Trametinib] (partner 0.02 µM)
How it was run: (§1)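 After 5 days of treatment, lung cancer cells in 1536-well plates were fixed and stained in a single step (final 0.05% Triton X-100, 1% formaldehyde, 1 ug/ml Hoechst) and their nuclei counted on 4× images. Treatment had been applied by pin tool the day after seeding as one drug alone or as a fixed anchor-drug dose with five library-drug doses (not always all listed) in √10 steps. Relative viability is the nuclei count of treated wells divided by that of vehicle wells, and values are medians of duplicate plates.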

IPA-3 + Pemetrexed = compound: C1=CC=C2C(=C1)C=CC(=C2SSC3=C(C=CC4=CC=CC=C43)O)O [IPA-3] + Nc1nc2[nH]cc(CCc3ccc(C(=O)N[C@@H](CCC(=O)O)C(=O)O)cc3)c2c(=O)[nH]1 [Pemetrexed] (partner 0.2 µM)
How it was run: as §1

Doramapimod + Luminespib = compound: Cc1ccc(-n2nc(C(C)(C)C)cc2NC(=O)Nc2ccc(OCCN3CCOCC3)c3ccccc23)cc1 [Doramapimod] + CCNC(=O)c1noc(-c2cc(C(C)C)c(O)cc2O)c1-c1ccc(CN2CCOCC2)cc1 [Luminespib] (partner 0.01 µM)
How it was run: as §1

Doramapimod + AZD7762 = compound: Cc1ccc(-n2nc(C(C)(C)C)cc2NC(=O)Nc2ccc(OCCN3CCOCC3)c3ccccc23)cc1 [Doramapimod] + NC(=O)Nc1cc(-c2cccc(F)c2)sc1C(=O)N[C@H]1CCCNC1 [AZD7762] (partner 0.2 µM)
How it was run: as §1

Row | Cell Line | relative viability (IPA-3 + Trametinib; first compound 0.2 µM) | relative viability (IPA-3 + Trametinib; first compound 0.6325 µM) | relative viability (IPA-3 + Trametinib; first compound 2 µM) | relative viability (IPA-3 + Trametinib; first compound 6.325 µM) | relative viability (IPA-3 + Trametinib; first compound 20 µM) | relative viability (IPA-3 + Pemetrexed; first compound 0.2 µM) | relative viability (IPA-3 + Pemetrexed; first compound 0.6325 µM) | relative viability (IPA-3 + Pemetrexed; first compound 2 µM) | relative viability (IPA-3 + Pemetrexed; first compound 6.325 µM) | relative viability (IPA-3 + Pemetrexed; first compound 20 µM) | relative viability (Doramapimod + Luminespib; first compound 0.02 µM) | relative viability (Doramapimod + Luminespib; first compound 0.06325 µM) | relative viability (Doramapimod + Luminespib; first compound 0.2 µM) | relative viability (Doramapimod + Luminespib; first compound 0.6325 µM) | relative viability (Doramapimod + Luminespib; first compound 2 µM) | relative viability (Doramapimod + AZD7762; first compound 0.02 µM) | relative viability (Doramapimod + AZD7762; first compound 0.06325 µM) | relative viability (Doramapimod + AZD7762; first compound 0.2 µM) | relative viability (Doramapimod + AZD7762; first compound 0.6325 µM) | relative viability (Doramapimod + AZD7762; first compound 2 µM)
1 | NCI-H2087 | 0.235 | 0.267 | 0.178 | 0.227 | 0.271 | 0.698 | 0.642 | 0.645 | 0.678 | 0.608 | 0.174 | 0.215 | 0.195 | 0.158 | 0.234 | 1.47 | 1.52 | 1.15 | 1.42 | 1.39
2 | NCI-H2342 | 0.74 | 0.734 | 0.955 | 0.872 | 0.937 | 0.868 | 0.761 | 0.841 | 0.823 | 0.924 | 0.67 | 0.749 | 0.701 | 0.852 | 0.725 | 0.416 | 0.513 | 0.49 | 0.486 | 0.485
3 | EMC-BAC-2 | 0.938 | 0.843 | 0.829 | 0.914 | 0.812 | 0.456 | 0.461 | 0.458 | 0.437 | 0.464 | 1.28 | 1.17 | 1.12 | 1.22 | 1.15 | 1.07 | 1.16 | 1.07 | 1.07 | 0.965
4 | NCI-H1355 | 0.462 | 0.476 | 0.428 | 0.423 | 0.443 | 1.13 | 1.08 | 1 | 1.06 | 0.945 | 0.721 | 0.689 | 0.706 | 0.723 | 0.648 | 0.663 | 0.82 | 0.853 | 0.767 | 0.743
5 | NCI-H23 | 0.379 | 0.379 | 0.342 | 0.383 | 0.443 | 0.694 | 0.628 | 0.764 | 0.644 | 0.68 | 0.23 | 0.204 | 0.218 | 0.209 | 0.221 | 0.247 | 0.221 | 0.363 | 0.354 | 0.143
6 | NCI-H1651 | 0.945 | 0.798 | 0.883 | 0.904 | 0.971 | 0.602 | 0.606 | 0.621 | 0.591 | 0.679 | 0.76 | 0.863 | 0.87 | 0.93 | 0.758 | 0.441 | 0.478 | 0.435 | 0.441 | 0.356
7 | NCI-H1975 | 0.328 | 0.325 | 0.331 | 0.424 | 0.323 | 0.318 | 0.288 | 0.305 | 0.347 | 0.274 | 0.173 | 0.192 | 0.207 | 0.258 | 0.266 | 0.863 | 0.874 | 0.871 | 0.665 | 0.787
8 | HCC-44 | 1.09 | 1.04 | 1.13 | 0.984 | 1.05 | 0.607 | 0.575 | 0.588 | 0.617 | 0.616 | 1.06 | 1.05 | 1 | 1.24 | 0.983 | 1.06 | 1.02 | 1.04 | 1.01 | 1.07
9 | LOU-NH91 | 0.79 | 0.757 | 0.805 | 0.779 | 0.852 | 0.382 | 0.377 | 0.465 | 0.387 | 0.411 | 0.408 | 0.324 | 0.28 | 0.315 | 0.282 | 0.757 | 0.739 | 0.7 | 0.744 | 0.575
10 | NCI-H441 | 0.535 | 0.437 | 0.348 | 0.473 | 0.449 | 0.258 | 0.262 | 0.27 | 0.236 | 0.236 | 0.317 | 0.243 | 0.399 | – | 0.298 | 1.07 | 1.28 | 1.21 | 0.98 | 0.961
11 | NCI-H647 | 0.69 | 0.445 | 0.558 | 0.284 | 0.0977 | 0.164 | 0.162 | 0.209 | 0.134 | 0.089 | 0.189 | 0.224 | 0.151 | 0.347 | 0.154 | 0.602 | 0.616 | 0.461 | 0.485 | 0.454
12 | NCI-H1915 | 0.301 | 0.271 | 0.286 | 0.295 | 0.318 | 0.559 | 0.463 | 0.497 | 0.461 | 0.633 | 0.58 | 0.821 | 0.793 | 0.9 | 0.712 | 0.694 | 0.734 | 0.771 | 0.82 | 0.664
13 | NCI-H1734 | 0.661 | 0.628 | 0.707 | 0.618 | 0.72 | 0.412 | 0.46 | 0.436 | 0.365 | 0.383 | 0.227 | 0.259 | 0.214 | 0.17 | 0.18 | 0.418 | 0.608 | 0.498 | 0.75 | 0.434
14 | NCI-H1993 | 0.491 | 0.475 | 0.468 | 0.558 | 0.506 | 0.652 | 0.602 | 0.57 | 0.531 | 0.516 | 1.85 | 0.87 | 0.64 | 0.975 | 0.744 | 0.751 | 0.675 | 0.608 | 0.781 | 0.557
15 | LK-2 | 0.904 | 0.752 | 0.721 | 0.846 | 0.934 | 0.29 | 0.255 | 0.272 | 0.287 | 0.242 | 0.219 | 0.202 | 0.177 | 0.158 | 0.169 | 0.347 | 0.216 | 0.298 | 0.258 | 0.165
16 | NCI-H2405 | 0.683 | 0.639 | 0.511 | 0.628 | 0.81 | 1.19 | 1.07 | 1.11 | 0.998 | 0.962 | 0.639 | 0.591 | 0.794 | 0.885 | 0.522 | 0.821 | 0.746 | 0.758 | 0.895 | 0.686
